# Assays:
# Assay type in all cases: in vivo
# [1] = system: cotton, variety D&PL 555; assay: % terminal control of cotton plants, field trial; conditions: first open boll application, 3 replicates
# Protocol: (§1) The trial was performed on cotton, variety D&PL 555. The formulated test compounds were diluted to the appropriate concentrations with water to which a crop oil concentrate (1% to 2% v/v) or a non-ionic surfactant (0.25% v/v) was added. The application of the test composition as a cotton plant growth regulator was performed using pressurized, over-the-top spray equipment consisting of a research scale boom sprayer. Deposit of the test composition was primarily to the top of the cotton plants, minimizing spray deposition to lower branches, leaves and fruit. The finished spray volume was 10 gallons per acre, with sprayer nozzle design, orientation and nozzle pressures chosen to prevent spray drift. Applications were made at first sign of cotton boll opening and at 15%, 20% and 40% open bolls.
# (§2) The experimental design used randomized plots with 1 to 4 treatment rates of test composition and from 1 to 10 replications depending on the test (sees tables below). The size of each experimental plot was about 15 m^2. Testing was performed in Texas, North Carolina, Mississippi and Georgia.
# (§3) Percent desiccation, percent defoliation, percent terminal control and percent open bolls were evaluated at 7 and 14 days after application (DAA) of the test composition. Inspection of cotton plants for insect control of armyworm larvae was performed at 2 DAA and insect damage to bolls was performed at the time of harvest
# Terminal control refers to crop response to the top-most vertical bud and shoots growth. Percent terminal control estimates the proportion of these upper-most growth structures desiccated per 100 cotton plants. Fifty cotton plants in two representative locations within a treatment plot were chosen to determine percent control. Each terminal of the 50 plants in the 2 locations was evaluated, and the total number desiccated per 100 plants was recorded as percent terminal control.
# (§4) The results, shown as the mean of the indicated number of replications, were compared with results observed in the same trials with an untreated control.
# [2] = system: cotton, variety D&PL 555; assay: Cotton yield; conditions: 5 replicates
# Protocol: as §1, §2, §4
# [3] = system: cotton, variety D&PL 555; assay: % defoliation of cotton plants, field trial
# Protocol: as §1, §2, §3
# Defoliation refers to removal of leaves. Percent defoliation rating approximates the proportion of leaves of all sizes shed per 100 leaves present prior to application of the cotton growth regulator compound. An evaluation of the foliage in the untreated check plots was first undertaken. Then the test plots were individually evaluated. The percent of leaves dropped by the plants in the treated plot was determined using observations within the plot and comparisons to foliage in the untreated plot.
# as §4
smiles,measurement,setting,value
"CCOC(=O)C(Cl)Cc1cc(-n2nc(C)n(C(F)F)c2=O)c(F)cc1Cl (stereo not drawn) [carfentrazone-ethyl, ethyl 2-chloro-3-[2-chloro-5-(4-difluoromethyl-3-methyl-5-oxo-4,5-dihydro-[1,2,4]-triazol-1-yl)-4-fluorophenyl]propionate]",% Terminal Control,"[1]; 0.002 lb ai/a, 7 DAA",27%
same,% Terminal Control,"[1]; 0.002 lb ai/a, 14 DAA",44%
same,% Terminal Control,"[1]; 0.004 lb ai/a, 7 DAA",46%
same,% Terminal Control,"[1]; 0.004 lb ai/a, 14 DAA",58%
same,% Terminal Control,"[1]; 0.006 lb ai/a, 7 DAA",47%
same,% Terminal Control,"[1]; 0.006 lb ai/a, 14 DAA",59%
same,% Terminal Control,"[1]; 0.008 lb ai/a, 7 DAA",50%
same,% Terminal Control,"[1]; 0.008 lb ai/a, 14 DAA",58%
same,Cotton yield,"[2]; 20% open bolls application, 0.002 lb ai/a",1168 Lb lint/Acre
same,Cotton yield,"[2]; 20% open bolls application, 0.004 lb ai/a",1128 Lb lint/Acre
same,Cotton yield,"[2]; 20% open bolls application, 0.006 lb ai/a",1107 Lb lint/Acre
same,Cotton yield,"[2]; 20% open bolls application, 0.008 lb ai/a",1178 Lb lint/Acre
same,Cotton yield,"[2]; first open boll application, 0.002 lb ai/a",1172 Lb lint/Acre
same,Cotton yield,"[2]; first open boll application, 0.004 lb ai/a",1004 Lb lint/Acre
same,Cotton yield,"[2]; first open boll application, 0.006 lb ai/a",1152 Lb lint/Acre
same,Cotton yield,"[2]; first open boll application, 0.008 lb ai/a",1167 Lb lint/Acre
same,% Defoliation,"[3]; 15% open boll application, 0.004 lb ai/a, 14 DAA, 10 replicates",28%
same,% Defoliation,"[3]; 15% open boll application, 0.006 lb ai/a, 14 DAA, 10 replicates",33%
same,% Defoliation,"[3]; 15% open boll application, 0.008 lb ai/a, 14 DAA, 10 replicates",39%
same,% Defoliation,"[3]; 15% open boll application, 0.01 lb ai/a, 14 DAA, 10 replicates",41%
same,% Defoliation,"[3]; 20% open boll application, 0.002 lb ai/a, 7 DAA, 3 replicates",9%
same,% Defoliation,"[3]; 20% open boll application, 0.002 lb ai/a, 14 DAA, 3 replicates",17%
same,% Defoliation,"[3]; 20% open boll application, 0.004 lb ai/a, 7 DAA, 3 replicates",25%
same,% Defoliation,"[3]; 20% open boll application, 0.004 lb ai/a, 14 DAA, 3 replicates",38%
same,% Defoliation,"[3]; 20% open boll application, 0.006 lb ai/a, 7 DAA, 3 replicates",22%
same,% Defoliation,"[3]; 20% open boll application, 0.006 lb ai/a, 14 DAA, 3 replicates",34%
same,% Defoliation,"[3]; 20% open boll application, 0.008 lb ai/a, 7 DAA, 3 replicates",24%
same,% Defoliation,"[3]; 20% open boll application, 0.008 lb ai/a, 14 DAA, 3 replicates",36%
same,% Defoliation,"[3]; 40% open boll application, 0.004 lb ai/a, 7 DAA, 1 replicate",61%
same,% Defoliation,"[3]; 40% open boll application, 0.006 lb ai/a, 7 DAA, 1 replicate",58%
same,% Defoliation,"[3]; 40% open boll application, 0.008 lb ai/a, 7 DAA, 1 replicate",67%
same,% Defoliation,"[3]; first open boll application, 0.002 lb ai/a, 7 DAA, 4 replicates",6%
same,% Defoliation,"[3]; first open boll application, 0.002 lb ai/a, 14 DAA, 4 replicates",15%
same,% Defoliation,"[3]; first open boll application, 0.004 lb ai/a, 7 DAA, 4 replicates",12%
same,% Defoliation,"[3]; first open boll application, 0.004 lb ai/a, 14 DAA, 4 replicates",25%
same,% Defoliation,"[3]; first open boll application, 0.006 lb ai/a, 7 DAA, 4 replicates",13%
same,% Defoliation,"[3]; first open boll application, 0.006 lb ai/a, 14 DAA, 4 replicates",28%
same,% Defoliation,"[3]; first open boll application, 0.008 lb ai/a, 7 DAA, 4 replicates",12%
same,% Defoliation,"[3]; first open boll application, 0.008 lb ai/a, 14 DAA, 4 replicates",23%
